In brackets after ≈: the same amount, converted by molar mass. Entries after “also recorded” stand apart in the source; their conditions may differ.
Key:
E. coli = assay: Antibacterial MIC, microbroth dilution, E. coli; assay type: cell-based
Method: (§1) To investigate this possibility, the antibacterial effects of the DNM derivatives was assessed against strains of E. coli, S. aureus, and MRSA using the microbroth dilution method (Table 2).

S. aureus = assay: Antibacterial MIC, microbroth dilution, S. aureus; assay type: cell-based
Method: as §1

BT-474 = assay: Antiproliferative SRB assay, BT-474; assay type: cell-based; conditions: for IC50: Homo sapiens, BT-474, 72 h, Breast cancer, mean ± SEM
Excerpt: (§2) Topoisomerase inhibitors such as DOX are used as single agent and in combination therapy to treat a wide-range of cancer types.

HCT-116 = assay: Antiproliferative SRB assay, HCT-116; assay type: cell-based; conditions: Homo sapiens, HCT-116, 72 h, Colon cancer, mean ± SEM
Excerpt: as §2

IMR32 = assay: Antiproliferative SRB assay, IMR32; assay type: cell-based; conditions: Homo sapiens, IMR-32, 72 h, Neuroblastoma, mean ± SEM
Excerpt: as §2

H460 = assay: Antiproliferative SRB assay, H460; assay type: cell-based; conditions: Homo sapiens, NCI-H460, 72 h, Lung cancer, mean ± SEM
Excerpt: as §2

HOS = assay: Antiproliferative SRB assay, HOS; assay type: cell-based; conditions: Homo sapiens, 72 h, Osteosarcoma, mean ± SEM
Excerpt: as §2

Top2α = Top2α (Homo sapiens, UniProt P11388); assay: Top2α kDNA decatenation assay; assay type: biochemical; conditions: gel electrophoresis, FIG. 3a
Excerpt: (§3) FIG. 3. DNM derivatives are dual Top1/Top2 inhibitors with different modes of inhibition. (a) Inhibition of decatenating ability of Top2α with increasing concentrations of ETP, 6DNM-NH3, 6DNM-Pyr, and Ph-6DNM-NH3. K, kinetoplast DNA; OC, open circular; R, relaxed. (b) Inhibition of relaxing ability of Top1 with increasing concentrations of CPT, 6DNM-NH3, 6DNM-Pyr, and Ph-6DNM-NH3. R, relaxed; S, supercoiled. (c) Detection of Top2a-DNA using the ICE Assay. Genomic DNA ([…]) of H460 cells treated with drugs (50 μM, 30 min) was applied to nitrocellulose membrane and immunoblotted for Top2a. (d) Detection of Top1-DNA adducts using ICE Assay. Same procedure as (c) using 1 μg of DNA. (e) Inhibition of ETP-induced poisoning of Top2a. H460 cells treated with indicated concentrations of inhibitor for 30 min prior to treatment with ETP (50 μM). Detection of Top2α as in (c).
FIG. 9. Mechanism of action studies: Topoisomerases form transient covalent complexes with DNA to modify DNA topology. Ph6DNM-NH3 and 6DNM-NH3 inhibit bacterial DNA gyrase and human topoisomerase II in vitro.
The ability of Ph-6DNM-NH3, 6DNM-NH3, and 6DNM-Pyr to inhibit Top2α was assessed using a decatenation assay. In this assay, Top2α is incubated with kinetoplast DNA (kDNA), a large network of catenated minicircles and maxicircles of DNA. As Top2α decatenates the kDNA, it releases supercoiled and relaxed DNA minicircles that are easily separated from the kDNA by gel electrophoresis.

Top1cc = molecular target: T1, Top1cc (Homo sapiens, UniProt P11387); assay: ICE assay for Top1-DNA adducts in H460 cells; assay type: cell-based; conditions: for Accumulation of Top1cc (ICE assay): H460 cells, 50 μM, 30 min; for Mode of topoisomerase inhibition: in vitro and cell culture experiments taken together
T1 construct: endogenous in cells; host or cells: H460
T1 sequence (P11387 2-765 limits assumed): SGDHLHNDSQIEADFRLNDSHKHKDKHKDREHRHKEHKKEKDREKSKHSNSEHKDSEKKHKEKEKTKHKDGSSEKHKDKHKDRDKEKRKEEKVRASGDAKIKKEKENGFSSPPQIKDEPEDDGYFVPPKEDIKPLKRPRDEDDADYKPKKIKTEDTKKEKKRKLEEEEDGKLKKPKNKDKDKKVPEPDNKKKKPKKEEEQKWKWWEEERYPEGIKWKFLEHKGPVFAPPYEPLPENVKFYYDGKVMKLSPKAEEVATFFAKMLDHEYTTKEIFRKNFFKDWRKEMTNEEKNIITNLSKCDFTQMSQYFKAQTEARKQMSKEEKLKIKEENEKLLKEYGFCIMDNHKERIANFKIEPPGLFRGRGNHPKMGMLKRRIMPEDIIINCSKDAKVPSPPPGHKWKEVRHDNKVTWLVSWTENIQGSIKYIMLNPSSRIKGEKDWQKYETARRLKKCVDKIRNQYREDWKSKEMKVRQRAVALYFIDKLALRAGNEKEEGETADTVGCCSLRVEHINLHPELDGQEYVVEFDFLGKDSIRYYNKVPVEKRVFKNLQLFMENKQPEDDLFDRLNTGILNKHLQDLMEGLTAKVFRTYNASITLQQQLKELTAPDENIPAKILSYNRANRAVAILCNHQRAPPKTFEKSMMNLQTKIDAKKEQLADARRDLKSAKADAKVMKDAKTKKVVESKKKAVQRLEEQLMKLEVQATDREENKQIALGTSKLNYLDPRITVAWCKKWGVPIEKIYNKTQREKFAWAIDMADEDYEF
Excerpt: as §3
The in vivo complex of enzyme (ICE) assay can be used to distinguish poisons from catalytic inhibitors. The ICE assay consists of isolating the genomic DNA of cells treated with small molecules in a manner the preserves covalent DNA-protein complexes and applying it to nitrocellulose membranes. Because topoisomerase poisons stabilize the cleavage complexes, DNA-protein complexes can be detected by immunoblotting for specific topoisomerases, whereas catalytic inhibitors produce no such result. To determine if DNM derivatives are acting as poisons or catalytic inhibitors, H460 human lung cells were exposed to 50 μM of the Top2 poison ETP, Ph-6DNM-NH3, 6DNM-NH3, and 6DNM-Pyr and assessed for their ability to stabilize Top2cc. […] In a similar fashion, next investigated was the mode of Top1 inhibition using the ICE assay (FIG. 3b).

Top2α, sequence (P11388 whole entry): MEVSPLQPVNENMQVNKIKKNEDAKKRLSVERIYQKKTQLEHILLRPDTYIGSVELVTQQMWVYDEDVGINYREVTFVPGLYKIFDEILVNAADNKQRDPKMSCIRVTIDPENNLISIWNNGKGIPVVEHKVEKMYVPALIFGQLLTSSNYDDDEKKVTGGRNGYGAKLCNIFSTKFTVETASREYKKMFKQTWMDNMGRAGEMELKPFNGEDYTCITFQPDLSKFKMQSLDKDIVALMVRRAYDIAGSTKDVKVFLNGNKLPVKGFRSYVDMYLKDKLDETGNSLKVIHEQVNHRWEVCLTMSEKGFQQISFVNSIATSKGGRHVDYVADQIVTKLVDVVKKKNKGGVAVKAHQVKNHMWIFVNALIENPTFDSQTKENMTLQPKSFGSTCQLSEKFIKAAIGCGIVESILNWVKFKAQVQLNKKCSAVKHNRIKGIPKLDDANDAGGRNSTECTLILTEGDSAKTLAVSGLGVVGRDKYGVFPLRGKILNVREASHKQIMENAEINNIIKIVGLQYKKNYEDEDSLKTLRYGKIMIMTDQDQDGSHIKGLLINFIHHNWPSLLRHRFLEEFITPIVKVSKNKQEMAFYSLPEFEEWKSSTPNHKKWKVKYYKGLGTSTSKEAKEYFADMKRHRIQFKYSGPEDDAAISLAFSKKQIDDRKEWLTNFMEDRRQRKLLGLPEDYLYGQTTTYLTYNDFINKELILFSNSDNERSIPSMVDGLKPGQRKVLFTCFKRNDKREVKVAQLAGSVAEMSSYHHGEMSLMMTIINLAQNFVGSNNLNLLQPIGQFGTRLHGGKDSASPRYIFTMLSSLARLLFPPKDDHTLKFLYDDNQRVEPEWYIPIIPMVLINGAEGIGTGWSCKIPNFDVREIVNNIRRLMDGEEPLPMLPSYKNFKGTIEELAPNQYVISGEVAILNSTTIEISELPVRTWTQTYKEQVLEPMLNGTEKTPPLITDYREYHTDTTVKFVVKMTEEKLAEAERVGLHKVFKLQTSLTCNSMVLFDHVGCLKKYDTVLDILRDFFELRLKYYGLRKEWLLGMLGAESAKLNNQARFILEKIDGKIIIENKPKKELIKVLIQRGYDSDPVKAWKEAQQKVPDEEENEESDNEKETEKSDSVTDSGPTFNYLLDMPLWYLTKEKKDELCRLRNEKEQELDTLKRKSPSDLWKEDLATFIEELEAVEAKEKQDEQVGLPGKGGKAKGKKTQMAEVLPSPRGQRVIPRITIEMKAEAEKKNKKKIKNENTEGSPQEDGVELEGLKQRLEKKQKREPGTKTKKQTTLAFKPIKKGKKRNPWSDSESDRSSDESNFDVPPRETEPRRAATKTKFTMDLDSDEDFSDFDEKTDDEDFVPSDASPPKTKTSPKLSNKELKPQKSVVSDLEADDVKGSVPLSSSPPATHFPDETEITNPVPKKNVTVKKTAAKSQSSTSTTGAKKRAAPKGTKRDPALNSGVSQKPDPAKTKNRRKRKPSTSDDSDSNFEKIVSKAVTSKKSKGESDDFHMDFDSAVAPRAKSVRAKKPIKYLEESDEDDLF

**Q.** What does the source list for `Cc1cc(=O)n2c3c(c4c(cc13)c1ccccc1c(=O)n4C)OCC2CN` (stereo not drawn) [Compound 15]?
**A.** E. coli MIC (E. coli): 0.25 µg/mL; S. aureus MIC (S. aureus): 1 µg/mL; Effectiveness in BT-474 after Top1 degradation (BT-474; FIG. 4b, 72 hour): similarly reduced, however to a lesser extent; IC50 (BT-474): 690 ± 50 nM; IC50 (HCT-116): 37 ± 13 nM; IC50 (IMR32): 8.6 ± 0.1 nM; IC50 (H460): 12 ± 2 nM; IC50 (HOS): 17 ± 1 nM; Inhibition of decatenating function of Top2α (Top2α; listed as Ph-6DNM-NH3): inhibit the decatenating function of Top2α in a dose-dependent manner; also recorded: the least active derivative in this in vitro assay; Accumulation of Top1cc (ICE assay) (Top1cc): leads to the accumulation of Top1cc; Mode of topoisomerase inhibition (Top1cc): Top1 poison/Top2α catalytic inhibitor

**Q.** How did the MIC (E. coli; Escherichia coli) turn out when `Cc1cc(=O)n(C)c2c3c4c(cc12)c(C)cc(=O)n4C(CN1CCCC1)CO3` (stereo not drawn) [Compound 20] was run?
**A.** The MIC was 1 µg/mL (≈ 2.64 µM).

**Q.** What about the MIC (S. aureus; Staphylococcus aureus) of the same molecule?
**A.** Its MIC is 0.5 µg/mL (≈ 1.32 µM).

**Q.** What about the IC50 (BT-474) of the same molecule?
**A.** The IC50 was 91 ± 4 nM.

**Q.** And the IC50 (HCT-116)?
**A.** Its IC50 is 9 ± 1 nM.

**Q.** And the IC50 (IMR32)?
**A.** Its IC50 is 4.4 ± 0.3 nM.

**Q.** What about the IC50 (H460) of the same molecule?
**A.** The IC50 was 6.6 ± 0.5 nM.

**Q.** What about the IC50 (HOS) of the same molecule?
**A.** Its IC50 is 16 ± 2 nM.

**Q.** And the “Inhibition of decatenating function of Top2α” value (Top2α; listed as 6DNM-Pyr)?
**A.** The value was “inhibit the decatenating function of Top2α in a dose-dependent manner; also recorded: inhibiting Top2α function at lower concentrations than 6DNM-NH3”.

**Q.** What about the “Accumulation of Top1cc (ICE assay)” value (Top1cc) of the same molecule?
**A.** Its value is “neither 6DNM-NH3 nor 6DNM-Pyr, leads to the accumulation of Top1cc”.

**Q.** And the “Mode of topoisomerase inhibition” value (Top1cc)?
**A.** Its value is “dual Top1/Top2α catalytic inhibitors”.

Source: patent publication US11274106B2, “Topoisomerase inhibitors with antibacterial and anticancer activity” (THE BOARD OF TRUSTEES OF THE UNIVERSITY OF ILLINOIS, priority 2017, dated 2022)
